Laboratory results: patent US7410974B2, “Halogenated Quinazolinyl nitrofurans as antibacterial agents” (Ulysses Pharmaceutical Products, Inc., priority 2003, dated 2008)
≈ marks a conversion by molar mass, not a printed value. Where two headings read alike, the source gives them in different places.

How the values were obtained:
[1] = system: E. faecium ATCC 35667; test: MIC broth microdilution (NCCLS); type: cell-based, Enterococcus faecium; conditions: Enterococcus faecium, ATCC35667, E. faecium ATCC 35667; read-out: MIC
How it was run: (§1)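 NCCLS broth microdilution; inoculum 10^5-10^6 CFU/ml; 2-fold serial dilutions; 35° C, 24 h; A650 plus visual read. Media: MHBCA (S. saprophyticus, E. faecium), MHBCA + 2% laked horse blood (Listeria), HTM (Haemophilus), the last two under 5% CO2.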

[2] = system: S. saprophyticus ATCC 15305; test: Minimal Bactericidal Concentration (MBC); type: cell-based; conditions: Staphylococcus saprophyticus, ATCC15305; S. saprophyticus ATCC 15305; 99.9% killing; read-out: MBC
How it was run: (§2)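 After MIC reading, samples from each clear microtiter well (at least 5 wells without visible growth) were plated on TSA for viable counts. Plates were incubated at 35° C. for exactly 24 h and colonies counted.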

[3] = system: S. aureus ATCC 29213; test: MIC broth microdilution (NCCLS); type: cell-based, Staphylococcus aureus; conditions: Staphylococcus aureus, ATCC29213; S. aureus ATCC 29213; read-out: MIC
[4] = system: S. saprophyticus ATCC 15305; test: MIC broth microdilution (NCCLS); type: cell-based, Staphylococcus saprophyticus; conditions: Staphylococcus saprophyticus, ATCC15305; S. saprophyticus ATCC 15305; read-out: MIC
How it was run: as §1

[5] = system: S. epidermidis ATCC 12228; test: MIC broth microdilution (NCCLS); type: cell-based, Staphylococcus epidermidis; conditions: Staphylococcus epidermidis, ATCC12228; S. epidermidis ATCC 12228; read-out: MIC
How it was run: (§3)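 Susceptibility by NCCLS microdilution: checked inoculum 10^5-10^6 CFU/ml, 24 h at 35° C, and growth assessed at 650 nm and by eye. Haemophilus was tested in HTM medium and Listeria with laked horse blood, each incubated under 5% CO2.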

[6] = system: A. baumannii ATCC 19606; test: MIC broth microdilution (NCCLS); type: cell-based, Acinetobacter baumannii; conditions: Acinetobacter baumannii, ATCC19606, read-out: MIC
How it was run: as §3

[7] = system: S. aureus MRSA COL; test: MIC broth microdilution (NCCLS); type: cell-based, Staphylococcus aureus; conditions: Staphylococcus aureus, MRSA, S. aureus MRSA COL; read-out: MIC
How it was run: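 Inocula of 10^5-10^6 CFU/ml were checked by colony counts, and out-of-range runs were rejected. Test compounds underwent serial 2-fold dilution in cation-adjusted Mueller Hinton broth and were incubated for 24 h at 35° C. The MIC was the lowest concentration without visible growth.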

[8] = system: E. coli ATCC 25922; test: MIC broth microdilution (NCCLS); type: cell-based, Escherichia coli
[9] = system: E. faecalis ATCC 29212; test: MIC broth microdilution (NCCLS); type: cell-based, Enterococcus faecalis; conditions: Enterococcus faecalis, ATCC29212; E. faecalis ATCC 29212; read-out: MIC
[10] = system: Y. enterocolytica ATCC 23715; test: MIC broth microdilution (NCCLS); type: cell-based, Yersinia enterocolytica; conditions: Yersinia, ATCC23715, read-out: MIC
How it was run: as §3

[11] = system: B. fragilis ATCC 25285; test: MIC broth microdilution (NCCLS), anaerobic; type: cell-based; conditions: Bacteroides fragilis
Experimental: (§4) Minimal Inhibitory Concentration (MIC) Determination. Bacteria (primary strain panel, TABLE 1). Susceptibility tests were performed following the recommendations from the National Committee for Clinical Standards (NCCLS). The MICs were determined by a broth microdilution technique using a final volume of 100 μl of cation-adjusted Mueller Hinton Broth (MHBCA) and a bacterial inoculum of 10^5-10^6 Colony Forming Units (CFU)/ml. The inocula were verified and precisely determined by applying 10-μl drops of 10-fold dilutions onto Triptic Soy Agar plates. The CFU were counted after an incubation of 24 h at 35° C. Any experiment showing an inoculum that was more or less than 10^5-10^6 CFU/ml was rejected. Control antibiotics and test compounds were prepared at a concentration equivalent to 2-fold the highest desired final concentration. Compounds were then diluted directly in the 96-well microtiter plates by serial 2-fold dilutions using a multichannel pipette. Microtiter plates were incubated during 24 h at 35° C. and growth was recorded by using a microtiterplate reader at 650 nm as well as by visual observation. The MIC was defined as the lowest concentration of compound yielding no visible growth. […] Fastidious bacteria. The medium used for Listeria monocytogenes, Neisseria meningitidis, and Campylobacter jejuni was MHBCA containing 2% laked horse blood. The medium used for Haemophilus influenzae and Branhamella (Moraxella) catarrhalis was HTM as recommended by the NCCLS. Cultures of these fastidious bacteria were incubated at 35° C. in a 5% CO2 atmosphere. […] The medium used for Bacteroides fragilis was Wilkins Chalgren broth and growth was allowed under an anaerobic atmosphere at 35° C. for 48 hours.

[12] = system: C. jejuni ATCC 33291; test: MIC broth microdilution (NCCLS), fastidious bacteria; type: cell-based; conditions: Campylobacter jejuni, ATCC33291
How it was run: as §3

[13] = system: H. influenzae ATCC 49766; test: Minimal Bactericidal Concentration (MBC); type: cell-based; conditions: Haemophilus influenzae, ATCC49766, 99.9% killing
How it was run: as §2

[14] = system: H. influenzae ATCC 49247; test: Minimal Bactericidal Concentration (MBC); type: cell-based; conditions: Haemophilus influenzae, ATCC49247, 99.9% killing
How it was run: as §2

[15] = system: E. coli MC4100; test: MIC broth microdilution (NCCLS); type: cell-based; conditions: Escherichia coli; E. coli MC4100, pathotype Reference
Experimental: as §4

[16] = system: E. coli d4-OLR-pen10 (O157:H7); test: MIC broth microdilution, E. coli strains; type: cell-based; conditions: Escherichia coli
Experimental: as §4
(§5) Finally, compounds were also tested against populations of various clinical strains (antibiotic resistant strain panel, TABLE 1).

[17] = system: E. coli d25-ALR-pen14 (O157:H7); test: MIC broth microdilution, E. coli strains; type: cell-based; conditions: Escherichia coli
Experimental: as §4, §5

[18] = system: E. coli Ec118c (EIEC); test: MIC broth microdilution, E. coli strains; type: cell-based; conditions: Escherichia coli, pathotype EIEC
Experimental: as §4, §5

[19] = system: E. coli ATCC 35150 (O157:H7); test: MIC broth microdilution, E. coli strains; type: cell-based; conditions: Escherichia coli, ATCC35150
Experimental: as §4, §5

[20] = system: E. coli Ec022c (EIEC); test: MIC broth microdilution, E. coli strains; type: cell-based; conditions: Escherichia coli, pathotype EIEC
Experimental: as §4, §5

[21] = system: E. coli Ec119c (EIEC); test: MIC broth microdilution, E. coli strains; type: cell-based; conditions: Escherichia coli, pathotype EIEC
Experimental: as §4, §5

[22] = system: E. coli Ec117c (EIEC); test: MIC broth microdilution, E. coli strains; type: cell-based; conditions: Escherichia coli, pathotype EIEC
Experimental: as §4, §5

[23] = system: E. coli Ec027c (EIEC); test: MIC broth microdilution, E. coli strains; type: cell-based; conditions: Escherichia coli, pathotype EIEC
Experimental: as §4, §5

[24] = system: B. catarrhalis ATCC 8176; test: MIC broth microdilution (NCCLS), fastidious bacteria; type: cell-based, Branhamella (Moraxella) catarrhalis; conditions: Moraxella catarrhalis, ATCC8176, HTM, 5% CO2
How it was run: as §3

[25] = system: B. catarrhalis ATCC 8176; test: Minimal Bactericidal Concentration (MBC); type: cell-based, Branhamella (Moraxella) catarrhalis; conditions: Moraxella catarrhalis, ATCC8176, 99.9% killing
Experimental: Minimal Bactericidal Concentration (MBC). After the microtiter plates were read for the determination of the MIC, a 10-μl sample of each clear well (at least 5 wells without visible growth) was applied onto TSA plates for viable counts determination.
Petri dishes were incubated at 35° C. for exactly 24 h and bacterial colonies were counted.

[26] = system: H. influenzae ATCC 49766; test: MIC broth microdilution (NCCLS), fastidious bacteria; type: cell-based; conditions: Haemophilus influenzae, ATCC49766, HTM, 5% CO2
How it was run: as §3

[27] = system: H. influenzae ATCC 49247; test: as above; type: cell-based; conditions: Haemophilus influenzae, ATCC49247, HTM, 5% CO2
How it was run: as §3

[28] = system: E. coli ATCC 25922; test: Minimal Bactericidal Concentration (MBC); type: cell-based; conditions: Escherichia coli, ATCC25922, 99.9% killing
How it was run: as §2

[29] = system: L. monocytogenes ATCC 13932; test: MIC broth microdilution (NCCLS), fastidious bacteria; type: cell-based; conditions: Listeria monocytogenes, ATCC13932, MHBCA with 2% laked horse blood, 5% CO2
How it was run: as §3

[30] = Escherichia coli, ATCC25922, E. coli ATCC 25922 (Reference), read-out: MIC

C[C@@H](O)[C@H]1C(=O)N2C(C(=O)O)=C(SCCN=CN)C[C@H]12 [Imipenem]
MIC [1]: 2 µg/mL (≈ 6.68 µM) | MBC [2]: 0.03 to 0.06 µg/mL (≈ 0.1 to 0.2 µM) | MIC [3]: 0.015 µg/mL (≈ 0.0501 µM) | MIC [4]: 0.03 µg/mL (≈ 0.1 µM) | MIC [5]: 0.008 to 0.015 µg/mL (≈ 0.0267 to 0.0501 µM) | MIC [6]: 16 µg/mL (≈ 53.4 µM) | MIC [7]: 16 µg/mL (≈ 53.4 µM) | MIC [8, 30]: 0.12 µg/mL (≈ 0.401 µM) | MIC [9]: 0.5 µg/mL (≈ 1.67 µM) | MIC [10]: 0.5 µg/mL (≈ 1.67 µM) | MIC ([11]; ATCC25285, 48 h): 0.125 to 0.5 µg/mL (≈ 0.418 to 1.67 µM) | MIC [12]: 0.125 µg/mL (≈ 0.418 µM)

O=[N+]([O-])c1ccc(C=Cc2nc(Nc3cccc(O)c3)c3cc(F)ccc3n2)o1 [VI, 6-fluoro-2-[2-(5-nitro-2-furyl)vinyl]-4-(m-hydroxyanilino)-quinazoline]
melting point: 241 to 242 °C (dec.)

CC1(C)S[C@@H]2[C@H](NC(=O)[C@H](N)c3ccccc3)C(=O)N2[C@H]1C(=O)O [Ampicillin]
MIC [1]: 1 µg/mL (≈ 2.86 µM) | MBC [13]: ≤ 0.12 µg/mL | MBC [14]: 4 µg/mL (≈ 11.4 µM) | MIC [15]: 4 µg/mL (≈ 11.4 µM) | MIC [3]: 1 to 2 µg/mL (≈ 2.86 to 5.72 µM) | MIC [4]: 0.12 µg/mL (≈ 0.343 µM) | MIC [5]: 64 µg/mL (≈ 183 µM) | MIC [7]: 8 µg/mL (≈ 22.9 µM) | MIC ([8]; E. coli ATCC 25922 (Reference)): 4 µg/mL (≈ 11.4 µM) | MIC [8, 30]: 4 to 8 µg/mL (≈ 11.4 to 22.9 µM) | MIC [16]: 2 to 4 µg/mL (≈ 5.72 to 11.4 µM) | MIC [17]: 2 to 4 µg/mL (≈ 5.72 to 11.4 µM) | MIC [18]: > 64 µg/mL | MIC [19]: 2 µg/mL (≈ 5.72 µM) | MIC [20]: > 64 µg/mL | MIC [21]: > 64 µg/mL | MIC [22]: 16 µg/mL (≈ 45.8 µM) | MIC [23]: > 64 µg/mL | MIC [9]: 1 µg/mL (≈ 2.86 µM) | MIC [24]: ≤ 0.03 µg/mL | MBC [25]: ≤ 0.03 µg/mL | MIC [26]: ≤ 0.12 µg/mL | MIC [27]: 2 to 4 µg/mL (≈ 5.72 to 11.4 µM)

O=C(N[C@H](CO)[C@H](O)c1ccc([N+](=O)[O-])cc1)C(Cl)Cl [Chloramphenicol]
MIC [1]: 8 µg/mL (≈ 24.8 µM) | MBC [28]: 16 µg/mL (≈ 49.5 µM) | MBC [2]: 16 to 32 µg/mL (≈ 49.5 to 99 µM) | MIC [3]: 16 µg/mL (≈ 49.5 µM) | MIC [4]: 4 to 8 µg/mL (≈ 12.4 to 24.8 µM) | MIC [5]: 8 µg/mL (≈ 24.8 µM) | MIC [7]: 8 µg/mL (≈ 24.8 µM) | MIC [8, 30]: 4 µg/mL (≈ 12.4 µM) | MIC [9]: 8 µg/mL (≈ 24.8 µM) | MIC ([11]; ATCC25285, B. fragilis ATCC 25285, Wilkins Chalgren broth, anaerobic, 48 hours, read-out: MIC): 4 µg/mL (≈ 12.4 µM) | MIC ([12]; C. jejuni ATCC 33291, MHBCA with 2% laked horse blood, 5% CO2, read-out: MIC): 4 µg/mL (≈ 12.4 µM) | MIC [29]: 0.001 µg/mL (≈ 0.00309 µM)
